Data as given in ChEMBL document CHEMBL3400055, “(+)- and (-)-liriodenol, a pair of novel enantiomeric lignans from Liriodendron hybrid” (Bioorg Med Chem Lett, 2015).
Values after ≈ are worked out from the molar mass of the structure shown.

Tests used:
Format in all cases: functional, cell-based
[1] = Cytotoxic activity against human SGC7901 cells after 48 hrs by MTT assay; conditions: SGC-7901, 48 h
[2] = Cytotoxic activity against human BGC823 cells after 48 hrs by MTT assay; conditions: BGC-823, 48 h
NCI-H460 = experiment: Cytotoxic activity against human NCI-H460 cells after 48 hrs by MTT assay; conditions: NCI-H460, 48 h
MDA-MB-231 = experiment: Cytotoxic activity against human MDA-MB-231 cells after 48 hrs by MTT assay; conditions: MDA-MB-231, 48 h

Row | Compound | IC50 [1] [µg/mL] | IC50 [2] [µg/mL] | IC50 (NCI-H460) [µg/mL] | IC50 (MDA-MB-231) [µg/mL]
1 | C=C(C(=O)c1cc(OC)c(O)c(OC)c1)[C@@H](CO)C(=O)c1cc(OC)c(O)c(OC)c1 | 34.5 (≈ 79.7 µM) | 45.5 (≈ 105 µM) | 31.4 (≈ 72.7 µM) | 28.7 (≈ 66.3 µM)
2 | C=C(C(=O)c1cc(OC)c(O)c(OC)c1)[C@H](CO)C(=O)c1cc(OC)c(O)c(OC)c1 | > 100 | > 100 | 63.4 (≈ 147 µM) | 53.3 (≈ 123 µM)
3 | C=C(C(=O)c1cc(OC)c(O)c(OC)c1)C(CO)C(=O)c1cc(OC)c(O)c(OC)c1 (racemic) | 67.5 (≈ 156 µM) | 58.9 (≈ 136 µM) | 58.1 (≈ 134 µM) | 51.4 (≈ 119 µM)
